Test results published in patent US20060251703A1, “Composition comprising an edible acid or its acidic salt and the use thereof” (priority 2003, published 2006).
Counter-ions that a name gives are not always drawn.

Assays:
[1] = tested on: oxazolone-coated mouse ear; assay: Anti-delayed type allergy reaction (oxazolone ear inflammation); type: in vivo; conditions: 1 mg/ear coated, ears weighed after 24 hr; for inhibition in vivo at 1 mg/ear: Mus musculus, topical, read-out: Depression rate (%)
Procedure: The weights of testing mice are ranging from 20 g to 30 g. They are coated with 0.1 ml of oxazolone alcohol solution (0.5 w/v %) on the hair cleaned part of abdomen. After five days, each of the listed drugs is dissolved in oxazolone acetone solution (0.5 w/v %), and 10 μl each of the solutions is token by micro pipette to coat on both sides of the right ear. After 24 hr, the mouse is killed by ether and punched a circle area of a diameter of 5.5 mm on both right and left ears in corresponding part by a puncher machine (portions of drug coated and the blank). The punched portions are weighed and the inflammation rates calculated. The control group are coated only with the oxazolone acetone solution (0.5 w/v %). The inflammation depressing rates of each drug are calculated by following equation: Inflammation depressing rate(%)=[(weight of drug coated right ear)−(weight of non-drug-coated left ear)]×100%/(weight of non-drug-coated left ear)

[2] = tested on: mouse's leaching cell solution (abdominal cavity cells); assay: Drug depressing effect on histamine leaching when treated with 48/80 compound; type: cell-based; conditions: testing drug 100(mg/ml); for inhibition at 100000 µg/mL: Mus musculus, read-out: Depression rate (%); for inhibition at 100000 µg/mL / Depression rate (%): 48/80 compound-induced histamine release; for Histamine Releasing rate (%): 48/80 compound, control 90.5, blank 9.0
Procedure: This is a comparative testing of drug depressing effect on the amount of leaching histamines when is treated with 48/80 (Sigma, St. MO, USA) compound.
(1). Preparation of leaching cell solution from mouse body.
A mouse is killed and bloodletting. Then 10 ml of Locke's solution containing 0.1% bovine serum protein is injected into its abdominal cavity. After abdominal cavity being light massaged, the cavity is cut and the Locke's solution is removed. Cavity is washed with another 5 ml of Locke's solution, and this washed solution is added to the late one. This combined solution is centrifuged at 600 rpm for 5 minutes. The sediments are washed with 5 ml of cool Locke's solution. Adding 3 ml of cold Locke's solution to the washed sediments, then a leached cell solution of abdominal cavity is obtained. The composition of Locke's solution is: NaCL […], KCL 0.2%, CaCL2 0.15%, glucose 1.0%, in w/v, and the rest distillated water.
(2). Drug depressing effect on the amount of leaching histamines when treated with 48/80 compound.
Each testing compound listed in the table 1 is dissolved in a Ringer's solution containing 1% NaHCO3, and then diluted with Locke's solution to the indicated concentration. 1.0 ml of each of those solutions in last term is mixed with 0.3 ml of mouse's leaching cell solution and 0.5 ml of Locke's solution. This mixture is cultivated at 37° C. for 5 minutes. Then adding 0.2 ml of Locke's solution of 48/80 compound (1 mg/100 ml) and cultivated at 37° C. for 10 minutes. Then the reaction is stopped by cooling, and centrifuged at 2,500 rpm for 10 minutes. 1.7 ml of decanted solution and 0.3 ml of sediments are obtained. 0.1 ml of water and 0.2 ml of 100% trichloroacetic acid are added to the decanted solution. 1.5 ml of Locke's solution and 0.2 ml of 100% trichloroacetic acid are added to the sediments washed solution. They are cultivated at room temperature for 30 minutes. After cultivation, the mixtures are centrifuged at 3,000 rpm for 15 minutes, respectively. 0.35 ml of each of the former two solutions is sampled. In each sample, 1.65 ml of water, 0.4 ml of 1N NaOH and 0.1 ml of 0.5% OPT (o-phthalic aldehyde) in methanol are added and cultivated at room temperature for 4 minutes. The reaction is stopped by adding 0.2 ml of 2M citric acid. And finally, determine the amount of released histamines in the tested solution by fluorescence method. By the analysis, results of the depression rate of histamines could be calculated.
Locke's solution is instead of each drug in control group, and instead of both drug and 48/80 compound solution in blank group. The histamine releasing rate (A) can be calculated by following equation. […] Where (Hs) is the total amount of histamine in the decanted solution, and (Hr) is the total amount of histamine in the sediment. (A)=[(Hs)/{(Hs)+(Hr)}]×100%. Then the depression rate is: =100−[(A−A in blank group)/(A−A in control group)]×100%.

xanthine oxidase = assay: Inhibition of xanthine oxidase; type: biochemical; conditions: xanthine oxidase 0.01 u/ml, xanthine 5×10^−5M, pH=7.4, UV 295 nm; read-out: IC50 (concentration for depression of 50% activity of oxidase)
Procedure: The production process of peroxide free radical can be tested by Xanthine oxidase substrate in vito (Fridowich, I., J. Biol. Chem., 215, 4053˜4057, 1970). […] The test of inhibiting xanthine oxidase is carried out by the method of H. M. Kalckar (J. Biol. Chem., 167, 429˜443, 1947). The basic principle is xanthine being acted by xanthine oxidase to form uric acid that is quantitative analyzed by photometric method. By the amount of determined uric acid, is calculated the degree of inhibiting effect for the activity of xanthine oxidase.
The testing process is, adding a final concentration of 0.01 u/ml of xanthine oxidase in 1 cm cell of photometric apparatus, and adding 0.05M (pH=7.4) of phosphoric acid buffer or inhabitant The reaction time is counted from the point at adding xanthene's to a final concentration reaching 5×10^−5M. For reducing the error arose by absorption of liquid in photometric analysis, the compound of xanthine oxidase, xanthine and drug are boiled for the reference. UV selected at 295 nm, data are recorded at an interval of 30 seconds for 2 minutes. The unit of activity change of xanthine oxidase is 0.001M/min. Calculate the inhibiting rate for each addition amount of drug. To use drug concentration (M) as a function of inhibiting rate (%), and to trace the data on a log scale paper, the 50% depression rate of the oxidase (IC50) could be determined by regression line method.

[3] = pH of saliva after ingesting citric acid; type: in vivo, human; conditions: 700 mg citric acid ingested
Procedure: Saliva is a kind of humors and, normally, has the pH of around 6.8. For the purpose of reference, to test the pH of the saliva of a person was carried out who had brushed before testing and ingesting 700 mg of citric acid. […]

Chain of xanthine oxidase (P47989 whole entry, species assumed): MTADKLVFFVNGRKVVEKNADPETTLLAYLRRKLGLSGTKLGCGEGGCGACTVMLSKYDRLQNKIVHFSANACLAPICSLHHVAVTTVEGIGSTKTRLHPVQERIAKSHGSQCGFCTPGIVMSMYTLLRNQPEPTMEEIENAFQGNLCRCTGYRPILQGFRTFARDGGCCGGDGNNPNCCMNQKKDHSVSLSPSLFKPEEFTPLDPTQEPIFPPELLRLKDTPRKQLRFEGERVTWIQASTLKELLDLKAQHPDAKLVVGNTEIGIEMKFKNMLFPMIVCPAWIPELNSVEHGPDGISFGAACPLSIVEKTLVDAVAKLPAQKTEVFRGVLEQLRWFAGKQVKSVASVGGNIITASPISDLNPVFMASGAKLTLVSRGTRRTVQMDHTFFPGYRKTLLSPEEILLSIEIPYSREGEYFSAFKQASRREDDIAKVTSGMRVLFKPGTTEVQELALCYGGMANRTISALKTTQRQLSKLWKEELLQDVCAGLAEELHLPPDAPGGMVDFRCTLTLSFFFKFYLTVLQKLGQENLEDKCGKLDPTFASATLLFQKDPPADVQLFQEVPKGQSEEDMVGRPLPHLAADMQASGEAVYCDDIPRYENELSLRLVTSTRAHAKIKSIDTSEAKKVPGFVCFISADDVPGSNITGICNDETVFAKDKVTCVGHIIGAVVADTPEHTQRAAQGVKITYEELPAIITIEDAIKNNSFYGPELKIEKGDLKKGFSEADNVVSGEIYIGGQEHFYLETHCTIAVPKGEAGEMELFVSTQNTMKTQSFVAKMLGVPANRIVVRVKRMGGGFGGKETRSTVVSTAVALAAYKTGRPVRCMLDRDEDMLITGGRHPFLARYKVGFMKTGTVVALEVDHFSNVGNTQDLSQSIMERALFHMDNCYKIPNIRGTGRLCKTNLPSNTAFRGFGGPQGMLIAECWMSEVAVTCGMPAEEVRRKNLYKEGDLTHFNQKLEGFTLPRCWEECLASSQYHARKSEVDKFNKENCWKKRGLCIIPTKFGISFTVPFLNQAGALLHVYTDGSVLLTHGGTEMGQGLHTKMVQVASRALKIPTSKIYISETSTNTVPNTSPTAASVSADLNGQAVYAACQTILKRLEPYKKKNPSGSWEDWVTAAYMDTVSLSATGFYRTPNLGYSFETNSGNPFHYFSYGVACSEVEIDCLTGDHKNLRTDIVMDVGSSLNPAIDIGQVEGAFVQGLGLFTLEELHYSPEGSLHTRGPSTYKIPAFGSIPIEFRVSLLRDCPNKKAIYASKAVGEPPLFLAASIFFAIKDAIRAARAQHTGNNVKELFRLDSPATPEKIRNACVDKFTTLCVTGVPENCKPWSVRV

Row | IC50 (xanthine oxidase) | SMILES | inhibition in vivo at 1 mg/ear [1] | inhibition at 100000 µg/mL [2] | Histamine Releasing rate (%) [2] | also measured
1 | 112 nM | O=C(O)CC(O)C(=O)O (stereo not drawn) [Malic acid] | 96% | 100% | 9.0% | –
2 | 102 nM | O=C(O)C(O)C(O)C(=O)O (stereo not drawn) [Tartaric acid] | 97% | 100% | 8.9% | –
3 | – | O=C(O)CO [α-hydroxy ethanoic acid] | – | – | 9.0% | Depression rate (%) [1]: 98%; Depression rate (%) [2]: 100%
4 | 101 nM | O=C(O)/C=C/C(=O)O [Fumaric acid] | 98% | 100% | 8.9% | –
5 | – | CCCCCCC(O)C(=O)O (stereo not drawn) [α-hydroxy octanoic acid] | 94% | 100% | 9.0% | –
6 | 662 nM | Nc1nc2ncc(CNc3ccc(C(=O)N[C@@H](CCC(=O)O)C(=O)O)cc3)nc2c(=O)[nH]1 [Folic acid, reference compound] | – | – | – | –
7 | – | CC1(C)[C@@H](O[C@H]2O[C@H](C(=O)[O-])[C@@H](O)[C@H](O)[C@H]2O[C@@H]2O[C@H](C(=O)[O-])[C@@H](O)[C@H](O)[C@H]2O)CC[C@]2(C)[C@H]3C(=O)C=C4[C@@H]5C[C@@](C)(C(=O)[O-])CC[C@]5(C)CC[C@@]4(C)[C@]3(C)CC[C@@H]12.[Na+].[Na+].[Na+] [Trisodium glycyrrhizinate, reference compound] | – | – | 65.5% | Depression rate (%) [2]: 30.9%
8 | 100 nM | O=C(O)CC(O)(CC(=O)O)C(=O)O [Citric acid] | 100% | 100% | 8.7% | pH value of saliva ([3]; testing time 0 minute): 6.8; pH value of saliva ([3]; testing time 20 minute): 6.45; pH value of saliva ([3]; testing time 60 minute): 6.26; pH value of saliva ([3]; testing time 90 minute): 6.6; pH value of saliva ([3]; testing time 120 minute): 6.8
9 | – | CC(O)C(=O)O (stereo not drawn) [Lactic acid] | 97% | 100% | 8.9% | –
10 | – | O=C1O[C@H](CO)[C@@H](O)[C@H](O)[C@H]1O [gluconolactone] | 97% | 100% | 8.9% | –
11 | – | CN(C)CCOC(c1ccccc1)c1ccccc1 [Diphenhydramine hydrochloride, reference compound] | 20% | 32.1% | 64.7% | –
